Assay results published in patent publication US11008340B2, “Modulators of ROR-gamma” (Vitae Pharmaceuticals, LLC, priority 2015, dated 2021).

Experiments:
[1] = molecular target: T1, full-length RORγt in Jurkat cells (Homo sapiens, UniProt P51449); test: RORγt 5×RORE Assay in Jurkat Cells (Assay 2); assay type: cell-based; settings: 5×RORE luciferase reporter, read-out: Avg ROR γt/5x IC50
T1 construct: transcriptional activity of the full-length RORγt in Jurkat cells; host or cells: Jurkat cells (ATCC TIB-152)
T1 sequence (P51449 1-497 isoform P51449-2): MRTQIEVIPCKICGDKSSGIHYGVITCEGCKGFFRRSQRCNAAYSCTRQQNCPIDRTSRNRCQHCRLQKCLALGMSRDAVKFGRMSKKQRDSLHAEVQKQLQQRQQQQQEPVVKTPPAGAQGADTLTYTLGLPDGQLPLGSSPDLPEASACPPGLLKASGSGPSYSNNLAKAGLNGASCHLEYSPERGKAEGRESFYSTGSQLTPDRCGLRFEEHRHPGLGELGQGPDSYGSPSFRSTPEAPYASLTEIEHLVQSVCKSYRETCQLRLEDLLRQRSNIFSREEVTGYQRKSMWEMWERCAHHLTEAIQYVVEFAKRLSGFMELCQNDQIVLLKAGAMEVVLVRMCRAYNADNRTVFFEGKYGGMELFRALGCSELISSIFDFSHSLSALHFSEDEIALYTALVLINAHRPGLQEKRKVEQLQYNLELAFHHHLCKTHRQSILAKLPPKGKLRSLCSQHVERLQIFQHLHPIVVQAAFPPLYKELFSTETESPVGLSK
Procedure: [formula] RORγt 5×RORE Assay in Jurkat Cells (Assay 2)
Compounds described herein were tested for RORγ inverse agonist activity in a cell-based, transcriptional activity assay. Secreted Nanoluc″ luciferase was used as a reporter for transcriptional activity of the full-length RORγt in Jurkat cells (ATCC, Cat. #TIB-152). A reporter plasmid was constructed by inserting 5 repeats of the ROR Response Element (RORE) […] (SEQ ID NO: 1) into a commercially available promoterless plasmid pNL1.3[secNluc] (Promega, Cat. #N1021) using KpnI and HindIII restriction sites. The expression plasmid for RORγt was purchased (Geneocopoeia, Cat. #EX-T6988-M02). Jurkat cells (30 million cells) were transfected with 11 μg of EX-T6988-MO2 and 26 μg of the reporter plasmid in OptiMEM® media using Lipofectamine LTX and Plus™ reagents (Life Technologies, Cat. #15338-100). After 5-6 hrs of incubation at 37° C./5% CO2, the cells were collected, resuspended in phenol-red free RPMI media containing 10% (v/v) delipidated FBS (Hyclone, Cat. #SH30855.03) and dispensed into 96-well clear bottom tissue culture plates (CoStar, Cat. #3603), at 80,000 cells per well. Tested compounds were added to the cells in the same media (final concentration of DMSO was 0.1% (v/v)), and the plates were incubated at 37° C./5% CO2 for 16-18 hrs. Luciferase activity in the conditioned supernatants was determined with NanoGlo® assay reagents (Promega, Cat. #N1130).

[2] = molecular target: T2, recombinant RORγ Ligand Binding Domain (LBD) protein (Homo sapiens, UniProt P51449); test: Radio-Ligand RORγ Binding Assay (Assay 1); settings: radio-ligand competition, 25-hydroxy [26,27-3H]-cholesterol, RORγ LBD; read-out: Avg ROR Bind Ki
T2 construct: 6×His; GST
T2 sequence (P51449 269-508 limits assumed): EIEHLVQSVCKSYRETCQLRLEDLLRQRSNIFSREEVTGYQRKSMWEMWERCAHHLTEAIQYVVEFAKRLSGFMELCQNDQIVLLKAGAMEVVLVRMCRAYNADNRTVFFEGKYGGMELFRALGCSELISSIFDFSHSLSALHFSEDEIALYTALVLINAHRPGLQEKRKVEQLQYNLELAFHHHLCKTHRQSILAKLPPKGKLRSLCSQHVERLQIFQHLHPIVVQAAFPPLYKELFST
Procedure: Radio-Ligand RORγ Binding Assay (Assay 1)
Compounds described herein were tested for ability to bind to RORγ in a cell-free competition assay with commercially available radio-ligand (RL), 25-hydroxy [26,27-^3H]-cholesterol (PerkinElmer, Cat. #NET674250UC), for a ligand binding site on a recombinant RORγ Ligand Binding Domain (LBD) protein expressed as a 6×His-Glutathione-S-Transferase (GST) fusion. The assay was performed in 96-well SPA plates (PerkinElmer, Cat. #1450-401) in 50 mM HEPES buffer, pH 7.4, containing 150 mM NaCl, 5 mM MgCl2, 10% (v/v) glycerol, 2 mM CHAPS, 0.5 mM 3-octylglucopyranoside and 5 mM DTT. Tested compounds were dissolved in DMSO, and semi-log (3.162×) serial dilutions of the compounds were prepared in the same solvent. Two μL of the DMSO solutions were mixed with 28 μL of 8.6 nM 25-hydroxy [26,27-^3H]-cholesterol and 50 μL of 24 nM RORγ LBD. The plate was shaken at 700 rpm for 20 min and incubated for 10 min at rt, after which 40 μL of poly-Lys YSi SPA beads (PerkinElmer, Cat. #RPNQ0010) were added to achieve 50 μg of the beads per well. The plate was incubated on an orbital shaker for 20 min and then for 10 min without agitation at rt. SPA signal for tritium beta radiation was registered on PerkinElmer Microbeta plate reader. […] The percent inhibition vs. concentration data were fit into a four-parameter model, and IC50 values were calculated from the fit as the concentrations corresponding to the inflection points on the dose-response curves. Inhibitory constants (Ki) were calculated using the following equation, where [RL] is the concentration in the assay and KD is a dissociation constant of 25-hydroxy [26,27-^3H]-cholesterol: […]

An IC50 [1] of 100 to 1000 nM and a Ki [2] of 100 to 1000 nM were found for CCOC(=O)c1cnc(N2CCc3cc(C(=O)NCc4ccc(S(=O)(=O)CC)cc4)ccc3C2C(C)C)nc1C(F)(F)F (racemic) [Hy2A-5, ethyl 2-(6-((4-(ethylsulfonyl)benzyl)carbamoyl)-1-isopropyl-3,4-dihydroisoquinolin-2(1H)-yl)-4-(trifluoromethyl)pyrimidine-5-carboxylate] in this work.
With CCS(=O)(=O)c1ccc(CNC(=O)c2ccc3c(c2)CCN(Cc2ccc(Cl)cc2)C3C)cc1 (racemic) [Hy2A-11, 2-(4-chlorobenzyl)-N-(4-(ethylsulfonyl)benzyl)-1-methyl-1,2,3,4-tetrahydroisoquinoline-6-carboxamide] the IC50 [1] was 100 to 1000 nM and the Ki [2] was < 100 nM.
For CCS(=O)(=O)c1ccc(CNC(=O)c2ccc3c(c2)CCN(Cc2ccc(F)cc2)C3C(C)C)cc1 (racemic) [Hy2A-13, N-(4-(ethylsulfonyl)benzyl)-2-(4-fluorobenzyl)-1-isopropyl-1,2,3,4-tetrahydroisoquinoline-6-carboxamide], the IC50 [1] was < 100 nM and the Ki [2] was < 100 nM.
With CCS(=O)(=O)c1ccc(CNC(=O)c2ccc3c(c2)CCN(Cc2ccc(C#N)cc2)C3C(C)C)cc1 (racemic) [Hy2A-14, 2-(4-cyanobenzyl)-N-(4-(ethylsulfonyl)benzyl)-1-isopropyl-1,2,3,4-tetrahydroisoquinoline-6-carboxamide] the IC50 [1] was < 100 nM and the Ki [2] was < 100 nM.
With CCS(=O)(=O)c1ccc(C(C)NC(=O)c2ccc3c(c2)CCN(Cc2cnc(C)cn2)C3C(C)C)cc1 (racemic) [Hy2A-18, N-(1-(4-(ethylsulfonyl)phenyl)ethyl)-1-isopropyl-2-((5-methylpyrazin-2-yl)methyl)-1,2,3,4-tetrahydroisoquinoline-6-carboxamide] the IC50 [1] was 100 to 1000 nM and the Ki [2] was < 100 nM.
With CCS(=O)(=O)c1ccc(CNC(=O)c2ccc3c(c2)CCN(Cc2ccc(Cl)cc2)C3C(C)C)cc1 (racemic) [Hy2A-19, 2-(4-chlorobenzyl)-N-(4-(ethylsulfonyl)benzyl)-1-isopropyl-1,2,3,4-tetrahydroisoquinoline-6-carboxamide] the IC50 [1] was < 100 nM and the Ki [2] was < 100 nM.
In the case of CCS(=O)(=O)c1ccc(CNC(=O)c2ccc3c(c2)CCN(Cc2ccc(Cl)cn2)C3C(C)C)cc1 (racemic) [Hy2A-21, 2-((5-chloropyridin-2-yl)methyl)-N-(4-(ethylsulfonyl)benzyl)-1-isopropyl-1,2,3,4-tetrahydroisoquinoline-6-carboxamide], the IC50 [1] is reported as < 100 nM and the Ki [2] is reported as < 100 nM.
For CCS(=O)(=O)c1ccc(CNC(=O)c2ccc3c(OC4CCC(C(F)(F)F)CC4)nccc3c2)cc1 (single isomer, unassigned) [Hy1A-3.1, N-(4-(ethylsulfonyl)benzyl)-1-(((1s,4s)-4-(trifluoromethyl)cyclohexyl)oxy)isoquinoline-6-carboxamide], the IC50 [1] was > 1000 nM and the Ki [2] was < 100 nM.
With CCS(=O)(=O)c1ccc(CNC(=O)c2ccc3c(OC4CCC(C(F)(F)F)CC4)nccc3c2)cc1 (single isomer, unassigned) [Hy1A-3.2, N-(4-(ethylsulfonyl)benzyl)-1-(((1r,4r)-4-(trifluoromethyl)cyclohexyl)oxy)isoquinoline-6-carboxamide] the IC50 [1] was > 1000 nM and the Ki [2] was < 100 nM.
In the case of CCS(=O)(=O)c1ccc([C@H](CO)NC(=O)c2ccc3c(OC[C@@H]4CC[C@@H](C(F)(F)F)OC4)nc(C)cc3c2)cc1 (single isomer, unassigned) [Hy1A-18.2], the IC50 [1] is reported as < 100 nM and the Ki [2] is reported as < 100 nM.
CCS(=O)(=O)c1ccc([C@H](CO)NC(=O)c2ccc3c(OC[C@H]4CC[C@H](C(F)(F)F)CC4)nc(C)cc3c2)nc1 (single isomer, unassigned) [Hy1A-22.1] was tested, and the IC50 [1] was < 100 nM and the Ki [2] was < 100 nM.
CCS(=O)(=O)c1ccc([C@@H](CO)NC(=O)c2ccc3c(OC[C@H]4CC[C@H](C(F)(F)F)CC4)nc(C)cc3c2)nc1 (single isomer, unassigned) [Hy1A-22.2] was tested, and the IC50 [1] was 100 to 1000 nM and the Ki [2] was < 100 nM.
For CCOC(=O)c1cnc(N2CCc3cc(C(=O)NCc4ccc(S(=O)(=O)CC)cc4)ccc3[C@@H]2C(C)C)nc1C(F)(F)F (single isomer, unassigned) [Hy2A-5.1], the IC50 [1] was 100 to 1000 nM and the Ki [2] was < 100 nM.
